Earlier results as cited in patent US20160302965A1, “IMPLANTABLE THERAPEUTIC DEVICES” (ForSight Vision4, Inc., priority 2013, published 2016).

For `CCNC(=O)CCC/C=C\C[C@@H]1[C@@H](/C=C/[C@@H](O)CCc2ccccc2)[C@H](O)C[C@@H]1O` [bimatoprost], which solubility of the prodrug (concentration maintained in the fluid boundary layer) is on record?
Its solubility of the prodrug (concentration maintained in the fluid boundary layer) is 300 µg/mL.

What about the “solubility in PBS at pH 7” value (pH 7) of the same molecule?
Its value is 300 ug/ml.

For `O=C(O)CCC/C=C\C[C@@H]1[C@@H](CC[C@@H](O)CCc2ccccc2)[C@H](O)C[C@@H]1O` [latanoprost free acid], which “solubility in PBS at pH 7” value (pH 7) is on record?
The value was 800 ug/ml.

Which “solubility in PBS at pH 7” value (pH 7) does the source give for `CC(C)OC(=O)CCC/C=C\C[C@@H]1[C@@H](CC[C@@H](O)CCc2ccccc2)[C@H](O)C[C@@H]1O` [latanoprost] here?
Its value is 50 ug/ml.

Which “solubility at pH 7” value (pH 7) does the source give for `Brc1c(NC2=NCCN2)ccc2nccnc12` [brimonidine] here?
Its value is “about 600 ug/ml”.
